Experimental data taken from US9110063B2, “Assay methods for the determination of FKBPL expression level in the context of breast cancer” (The Queen's University of Belfast, priority 2009, dated 2015).

Columns and labels:
MCF7 parental cells = assay: Western blot of FKBPL and ER protein after 17-β-estradiol; type: cell-based; conditions: 10^−8M, 24 h, versus DMSO vehicle
Description: To determine whether FKBPL itself could be regulated by oestrogen, 2×10^5 MCF7 parental cells were seeded into 35 mm dishes with phenol red-free DMEM+10% charcoal stripped FCS and incubated at 37° C. for 24 h. The medium was replaced with phenol red-free DMEM+10% charcoal-stripped FCS containing DMSO as vehicle control or 10^−8M 17-β-estradiol (Sigma, Cat no. E2758) and incubated for 24 h. Cells were lysed in 250 μl 2× laemmli buffer (Sigma) and subjected to SDS-PAGE electrophoresis using the XCell Surelock Mini-cell system (Invitrogen), transferred onto nitrocellulose membranes, blocked for 1 h at room temperature with 1% skim milk blocking solution and probed with FKBPL rabbit polyclonal (ProteinTech, Cat no. 10060-1-AP) at a dilution of 1:2000, ER rabbit monoclonal (Millipore, Cat no. 07-662) at a dilution of 1:1000 and GAPDH rabbit monoclonal (Sigma, Cat no. G9545) at a dilution of 1:5000. The blot was then probed with corresponding anti-rabbit IgG HRP-linked whole antibody secondary (GE Healthcare, Cat no. NA934V) or anti-mouse IgG HRP-linked whole antibody secondary (GE Healthcare, Cat no. NA931V) at a dilution of 1:10000. Antibody binding was detected using Supersignal West Pico Chemiluminescent Substrate (Pierce, Cat no. 34080).

MCF7 cells [1] = assay: Clonogenic assay, FKBPL-overexpressing MCF7 clones versus parental controls; type: cell-based; conditions: 16 days, colony count
Description: Cells were plated at a density of 500 and 1000 cells/well in a 6-well plate containing DMEM+10% FCS and incubated at 37° C. for 24 h. […] In both experiments, colonies were fixed and stained with 0.4% Crystal Violet/70% methanol then counted.

[2] = tested on: oestrogen receptor positive (ER+) patients; conditions: cited from earlier work
MCF7 cells [3] = assay: Clonogenic assay after FKBPL siRNA knockdown versus non-targeting control; type: cell-based; conditions: 16 days, versus non-targeting siRNA controls
Description: MCF7 cells were transfected with siControl non-targeting siRNA #1 (Dharmacon, Cat no. D-001210-01-20) or FKBPL targeted siRNA (Ambion, Cat no. 16104). Briefly, 1×10^5 MCF7 cells were seeded into 35 mm dishes and incubated at 37° C. for 24 h. To transfect, in one tube 6.4 μl of either siControl non-targeting siRNA or FKBPL targeted siRNA (2 μM) was added to 160 μl OptiMEM (Invitrogen) and in another tube 4 μl Oligofectamine (Invitrogen, Cat no. 12252-011) was added to 30 μl OptiMEM. Both tubes were incubated at room temperature for 5 min. Both tube contents were mixed and incubated at room temperature for 20 min. During incubation, 800 μl prewarmed complete DMEM was added to the cells then 200 μl transfection mix was added dropwise and the dishes incubated at 37° C. for 72 h. Cells were then plated at a density of 1000 and 2000 cells/well in a 6-well plate containing DMEM+10% FCS and incubated at 37° C. for 24 h. […] In both experiments, colonies were fixed and stained with 0.4% Crystal Violet/70% methanol then counted.

C[C@]12CC[C@@H]3c4ccc(O)cc4CC[C@H]3[C@@H]1CC[C@@H]2O [17-β-estradiol]
ER levels (MCF7 parental cells): decrease
FKBPL protein expression (MCF7 parental cells): upregulated

CC/C(=C(\c1ccccc1)c1ccc(OCCN(C)C)cc1)c1ccccc1 [tamoxifen, Tamoxifen]
FKBPL-overexpressing cells more sensitive than parental controls (MCF7 cells [1]; 1 μM tamoxifen): up to 90%
ER+ patients showing a response ([2]; ER+ breast cancer patients): around 60%
ER+ tumours failing to respond to or developing resistance ([2]; ER+ tumours (non-responder subjects)): up to 40%
Resistance of MCF-7 cells after FKBPL knock-down (MCF7 cells [3]; 1 μM tamoxifen): dramatically increased the resistance

C[C@]12CC[C@@H]3c4ccc(O)cc4C[C@@H](CCCCCCCCC[S+]([O-])CCCC(F)(F)C(F)(F)F)[C@H]3[C@@H]1CC[C@@H]2O (some centres unmarked) [fulvestrant, Fulvestrant]
FKBPL-overexpressing clones more sensitive than parental controls (MCF7 cells [1]; 2.5 nM fulvestrant): up to 99%
Resistance of MCF-7 cells after FKBPL knock-down (MCF7 cells [3]; 2.5 nM fulvestrant): dramatically increased the resistance
